These results are taken from paper PMC3274540 (PLoS ONE, 2012).

The structures appear in SMILES notation.

One experiment concerns the target T1, ERβ (Homo sapiens, UniProt Q92731).
T1 construct: gene ESR2; recombinant
Kind of experiment: fluorescence polarization competition binding assay. (In fluorescence polarisation assays a small probe gives low polarisation when free and higher when bound to something large.)

Another experiment deals with T2, ERα (Homo sapiens, UniProt P03372).
T2 construct: gene ESR1; recombinant
T2 sequence (P03372 1-595): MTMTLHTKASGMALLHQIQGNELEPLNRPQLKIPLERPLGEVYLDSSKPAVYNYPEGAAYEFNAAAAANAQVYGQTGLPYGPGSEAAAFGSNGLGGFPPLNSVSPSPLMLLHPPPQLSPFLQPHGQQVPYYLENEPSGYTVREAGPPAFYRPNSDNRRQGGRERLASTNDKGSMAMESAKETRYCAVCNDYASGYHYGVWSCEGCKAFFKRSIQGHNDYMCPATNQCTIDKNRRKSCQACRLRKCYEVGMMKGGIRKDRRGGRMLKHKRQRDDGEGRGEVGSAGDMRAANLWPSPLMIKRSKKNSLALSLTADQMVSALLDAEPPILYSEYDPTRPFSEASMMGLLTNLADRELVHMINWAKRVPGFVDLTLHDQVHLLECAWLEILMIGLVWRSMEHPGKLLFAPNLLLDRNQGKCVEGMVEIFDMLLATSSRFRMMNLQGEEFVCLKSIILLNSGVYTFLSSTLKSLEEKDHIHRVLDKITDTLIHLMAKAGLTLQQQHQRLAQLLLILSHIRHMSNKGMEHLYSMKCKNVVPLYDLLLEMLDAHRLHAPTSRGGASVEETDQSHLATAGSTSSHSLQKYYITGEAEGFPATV
The experiment is described as above.

T1 sequence (Q92731 whole entry): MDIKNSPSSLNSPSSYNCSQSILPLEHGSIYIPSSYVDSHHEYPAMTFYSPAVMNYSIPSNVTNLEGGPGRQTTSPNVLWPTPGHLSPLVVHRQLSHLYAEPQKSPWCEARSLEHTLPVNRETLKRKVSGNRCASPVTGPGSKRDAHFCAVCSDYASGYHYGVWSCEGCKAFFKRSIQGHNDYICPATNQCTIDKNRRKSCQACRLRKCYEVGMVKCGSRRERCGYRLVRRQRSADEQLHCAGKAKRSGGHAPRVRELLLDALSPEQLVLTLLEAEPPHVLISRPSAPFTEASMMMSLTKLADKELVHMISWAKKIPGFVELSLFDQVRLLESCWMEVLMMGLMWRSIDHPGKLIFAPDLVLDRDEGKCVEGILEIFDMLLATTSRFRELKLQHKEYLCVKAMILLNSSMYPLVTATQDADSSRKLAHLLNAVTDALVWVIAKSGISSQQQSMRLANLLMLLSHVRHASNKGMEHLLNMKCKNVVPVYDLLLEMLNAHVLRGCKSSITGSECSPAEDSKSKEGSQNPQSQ

In general, IC50 refers to the concentration at which inhibition is half-maximal. Higher therefore signals weaker potency in that assay. With `O=c1cc(-c2ccc(O)cc2)oc2cc(O[C@@H]3O[C@H](CO)[C@@H](O)[C@H](O)[C@H]3O)cc(O)c12` [cosmosiin, 5-hydroxy-2-(4-hydroxyphenyl)-7-[(2S,3R,4S,5S,6R)-3,4,5-trihydroxy-6-(hydroxymethyl)oxan-2-yl]oxychromen-4-one], the concentration for half-maximal inhibition (IC50) at ERβ turned out to be 3.3 µM; at ERα it was 15.9 µM.

With `COc1ccc([C@@H](C)C(=O)c2ccc(O)cc2O)cc1` [angolensin, 1-(2,4-dihydroxyphenyl)-2-(4-methoxyphenyl)propan-1-one], the figures for the IC50 on ERβ and on ERα were 4.7 µM and 2.2 µM, respectively.
